Measurements from patent US20020028847A1, “Method for treatment of fibrosis related diseases by the administration of prostacyclin derivatives” (Fibrogen, Inc., priority 1998, published 2002).
Like-named read-outs stand apart in the source and are kept apart here.

Tests used:
scleroderma fibroblasts = assay: ELISA for collagen (N propeptide of Type I collagen α chain) in cultured skin fibroblasts; assay type: cell-based, human
Excerpt: 4 mm punch skin biopsies were taken from the forearms of healthy volunteers and from patients with active diffuse scleroderma. Fibroblasts from these biopsies were subcultured to passage 6 in Dulbecco's modified eagle medium with 10% fetal calf serum and Pen Strep solution and grown to confluence. Twenty-four hours before assay, the fibroblasts were switched to serum free media with exchange of media every eight (8) hours. Upon switching to serum free medium (L-ascorbic acid phosphate magnesium salt n-hydrate) (C6H6O9P) 3/2 Mg was added at a final concentration of 30 μg/ml. The supernatant fluid from the above described culture was diluted 1/100 in 0.1 M NaHCO3 and 100 μl of said diluted culture was added to each well of a 96 well maxisorp plate. The plate was then left at room temperature for two hours on a plate shaker. The plate was then washed once in PBS. 200 μl of 2% BSA in PBS was then added and the plate was left for two hours to block non-specific binding. The plate was then washed four times in PBS and first layer antibody, anti-N-procollagen I rabbit polyclonal, diluted 1/2000 in 1% BSA PBS, was added at 100 μl/well. The plate was left for two (2) hours at room temperature and then washed four times in PBS. A second layer antibody, HRP labeled goat anti-rabbit IgG 1/2000, was then added and left for two hours. […] The plate was then read on a multiwell analyser.

[1] = system: renal interlobar and cortical arteries; details: scleroderma patients, iloprost infusions; cited from earlier work
CTGF = CTGF ELISA on cultured skin fibroblasts; assay type: cell-based, human; details: scleroderma fibroblasts
Excerpt: 4 mm punch skin biopsies were taken from the forearms of healthy volunteers and from patients with active diffuse scleroderma. Fibroblasts from these biopsies were subcultured to passage 6 in Dulbecco's modified eagle medium with 10% fetal calf serum and Pen Strep solution and grown to confluence. Twenty-four hours before assay, the fibroblasts were switched to serum free media with exchange of media every eight (8) hours. Upon switching to serum free medium (L-ascorbic acid phosphate magnesium salt n-hydrate) (C6H6O9P) 3/2 Mg was added at a final concentration of 30 μg/ml. The following protocol was used for the CTGF ELISA: 1. Plate antigen on Nunc immuno plase Maxisorp surface (catalog number 442402). 2. CTGF standard curve by two fold serial dilution in 6 triplicates (see Table 1, below). 3. Add 50 μl of sample to each well. 4. Leave wells for 2 hours at room temperature. 5. Wash wells 4 times with PBSa. 6. Add first layer antibody (pAB2 rabbit anti-human CTGF (0.8 mg/ml)( 1/1280)) diluted to 625 ng/ml in blocking buffer (1% BSA/0.05% tween20/PBS). 7. Add 50 μl to each well and leave at room temperature for one hour. 8. Wash wells five times with PBS. 9. Add second layer antibody donkey anti-rabbit IgG, HRP linked whole antibody (Amersham Life Sciences, Catalog No. NA 934 diluted 1/3200 in block buffer). 10. […] Stop reaction with 50 μl per well of 1M H2SO4 and read OD at 450 nm.

CTGF RNA = assay: Northern blot for CTGF RNA; assay type: cell-based; details: cells treated with TGF-β and iloprost
Method: Cultured cells are grown to confluence on 100 mm plates. The cells were then serum starved with ascorbate for 24 hours, after which conditioned medium with TGF-β and Iloprost was added. The cells were then lysed with TRIzol (Gibco catalog no. 15596-018) wherein 1 ml per plate of the TRIzol was added and the plate was left at room temperature for ten minutes. 200 μl of chloroform was then added and the cells were vortexed for 20 seconds. The cells were then left alone for 5 minutes at room temperature and then centrifuged in a microcentrifuge tube for 10 minutes at maximum speed at 4° C. The upper layer was then removed (layer containing RNA) and then mixed with an equal volume of isopropanol. The mixture was then centrifuged for 10 minutes to form a pellet of RNA. 0.5 ml of 70% ethanol in RNAse free purified water was then added to the pellet. The ethanol was then tipped off and the pellet was left to dry. After five minutes, the pellet was resuspended in 20 μl of RNAse free water and kept on ice. To assay the RNA using a photospectometer, a sample of the RNA was diluted 1/500 (volume 1 ml) and read at OD 260 nm (to measure RNA) and 280 nm (to measure protein). RNA concentration was calculated in terms of μg/μl=(OD260×40×dilution)/1000. […]

[2] = system: platelet thrombus formation; details: animals with thrombin induced thrombosis; cited from earlier work
Raynaud's phenomena = details: patients; cited from earlier work
CTGF promoter = assay: CTGF promoter/luciferase transfection assay in normal human fibroblasts; assay type: cell-based; details: measured over a twenty-four hour period
Method: Normal human fibroblasts were grown to 80% confluence in a 6 well plate. 1 μg of DNA (CTGF promoter/luciferase) was added with 3 μl of FuGene 6 transfection reagent (Boehringer Mannheim 1814443); wherein the FuGene 6 was added dropwise to serum free culture medium and left at room temperature for five minutes and added to 1 µg of DNA in a separate tube for fifteen minutes. The DNA/FuGene 6 solution was then added dropwise to the cell culture by spreading around each well and swirling the flasks. The cell culture was returned to an incubator and the cells were grown again to confluence, approximately 36 hours. The cells were then switched to a serum free medium with ascorbate and left overnight. The cells were then treated for 24 hours as follows: control; Iloprost 1000 pg/ml; TGF-β 20 ng/ml; and TGF-β 20 ng/ml+Iloprost 1000 pg/ml.
After 24 hours the cells were lysed with Promega reporter lysis buffer (E 397A) at room temperature, 400 μl per […] and left for 15 minutes at room temperature. A 50 μl sample of the lysate was drawn and 100 μl of luciferase assay reagent (Promega E 148A) was added. Chemiluminensence was read using a plate reader program ARQ.1PT software micro P1.00.

metastasis = details: several different animal models; cited from earlier work

CC#CCC(C)[C@H](O)/C=C/[C@@H]1[C@H]2C/C(=C/CCCC(=O)O)C[C@H]2C[C@H]1O (stereo partly drawn) [Iloprost, 5-(E)-(1S,5S,6R)-7-hydroxy-6[(E)-(3S,4RS)-3-hydroxy-4-methyl-1-octen-6-inyl]bicyclo[3.3.0]octen-3-ylidene pentanoic acid]
excessive production of collagen (scleroderma fibroblasts): inhibited | excessive production of collagen (scleroderma fibroblasts; listed as iloprost): capable of inhibiting collagen production | resistive index of the renal interlobar and cortical arteries [1]: reduction of the resistive index | CTGF production (CTGF): decrease in CTGF production | CTGF production (CTGF; listed as iloprost): capable of inhibiting collagen production and CTGF production | TGF-β induced synthesis of CTGF RNA (CTGF RNA): inhibit CTGF production | TGF-β induced synthesis of CTGF RNA (CTGF RNA; listed as iloprost): blocked | platelet thrombus formation [2]: prevent platelet thrombus formation | safety and efficacy in Raynaud's phenomena (Raynaud's phenomena): safe and effective therapy | time of most pronounced inhibitory effect on CTGF production (CTGF promoter): most pronounced between hour 1 and hour 3

CCC#CC[C@H](C)[C@H](O)C#C[C@@H]1[C@H]2C/C(=C/COCC(=O)O)C[C@H]2C[C@H]1O [cicaprost]
inhibition of metastasis (metastasis): effectively inhibit metastasis

CCC#CC[C@H](C)[C@H](O)C#C[C@@H]1[C@H]2C/C(=C/COCCCC(=O)O)C[C@H]2C[C@H]1O [eptaloprost]
inhibition of metastasis (metastasis): antimetastically acting agents
